Laboratory results published in patent US7109190B2, “Carbacephem β-lactam antibiotics” (Trine Pharmaceuticals, Inc., priority 2003, dated 2006).
Converted amounts (≈) assume the structure as drawn.

How the values were obtained:
MRSA COL = assay: In vitro MIC by agar dilution against MRSA COL; format: cell-based; conditions: Staphylococcus aureus; MRSA COL isolate; read-out: MIC (μg/mL) MRSA COL
From the text: (§1) The in vitro MIC for bacterial isolates may be obtained in the following manner: a test compound is incorporated into a series of two-fold dilutions in liquified Mueller-hinton agar. Upon solidification, a number of different bacterial strains are spot-inoculated onto the surface of the agar. […] The procedures used in these experiments are generally those standardized by the National Committee for Clinical Laboratory Standards (NCCLS), as set forth in the NCCLS publication entitled “Methods for Dilution Antimicrobial Susceptibility Tests (1991), which is incorporated by reference as if fully set forth herein. The following exemplified such a procedure although it is to be understood that modifications of the procedure may be implemented as required.
(§2) Aliquots of the test compounds are prepared in phosphate buffered saline (PBS) at pH approximately 7.2. Tween 20 or dimethylsulfoxide (DMSO) are added if necessary to solubilize the compound and vortexing, sonicating and gentle heating may also be employed. Typically, the concentration of the stock solution is 10× that of the highest compound concentration to be used. Serial two-fold dilutions are prepared down to the lowest concentration to be tested. Each compound concentration is tested in duplicate. A control plate using a reference drug such as cefotaxime, vancomycin or imipenem is used as a postive control. A negative control plate containing no drug or compound is also prepared.
(§3) A few isolated colonies are retrieved from a pure culture prepared on agar plates and transferred to a tube of nutrient broth and allowed to grow at 35–36° C. until log-phase growth is achieved, usually about 4–6 hours. The broth is then added dropwise to PBS until the turbidity of the suspension matches a 0.5 McFarland standard which is equal to approximately 10^8 cfu/ml.
(§4) The test plates containing the compound dilutions and the control plates are then inoculated with the PBS suspension. The plates are then incubated for 16–20 hours at 35–36° C. The plates are then observed to determine which concentration of the test compound is the MIC.
(§5) It is expected that the compounds will be equally, if not more, potent against other resistant strains of bacteria as well as bacteria which are susceptible to current clinical antibiotics. The range of utility of the compounds herein can easily be established by those skilled in the art using the disclosures herein and all bacteria within the useful range are within the scope of this invention.

MRSA 76 = assay: In vitro MIC by agar dilution against MRSA 76; format: cell-based; conditions: Staphylococcus aureus; MRSA 76 isolate; read-out: MIC (μg/mL) MRSA 76
From the text: as §1, §2, §3, §4, §5

human serum = assay: Human serum binding (ultrafiltration, HPLC); format: in vitro ADME
Method: The following procedure may be used to evaluate serum binding: compounds are incubated in serum for 10 min at 37° C. in a shaking water bath. Then a serum ultrafiltrate is obtained by centrifugation of ultra-filtration units (Amicon Centrifree) for, say, 20 minutes at 25° C. Compound content in the ultrafiltrate is quantified by HPLC using standards prepared in blank ultra-filtrate undergoing similar processing.
as §5

MRSA = MRSA potency, background prior-art compounds; cited from earlier work
serum protein = conditions: background prior-art compounds; cited from earlier work

Row | SMILES | MIC (MRSA COL) [µg/mL] | MIC (MRSA 76) [µg/mL] | Human Serum Binding (human serum) [%] | MIC (MRSA) [µg/mL] | serum binding (serum protein) [%]
1 | Nc1nc(/C(=N/O)C(=O)NC2C(=O)N3C(C(=O)O)=C(Sc4nncs4)CCC23)c(Cl)s1 (stereo not drawn) | 2 (≈ 3.98 µM) | 2 (≈ 3.98 µM) | 66.9 |  | 
2 | Nc1nc(/C(=N/OCCF)C(=O)N[C@@H]2C(=O)N3C(C(=O)O)=C(Sc4nc5cnccc5s4)CCC23)cs1 (stereo partly drawn) [compound (4)] |  |  |  | 64 (≈ 114 µM) | 36
3 | NCCSCc1cnccc1SC1=C(C(=O)O)N2C(=O)C(NC(=O)/C(=N\O)c3nc(N)sc3Cl)C2CC1 (stereo not drawn) | 1 (≈ 1.71 µM) | 1 (≈ 1.71 µM) | 74.5 |  | 
4 | Nc1nc(/C(=N/OCCF)C(=O)N[C@@H]2C(=O)N3C(C(=O)O)=C(Sc4nc5ccc([N+](=O)[O-])cc5s4)CCC23)cs1 (stereo partly drawn) [compound (3)] |  |  |  | 4 (≈ 6.58 µM) | 99.6
5 | Nc1nnc(SC2=C(C(=O)O)N3C(=O)C(NC(=O)/C(=N\O)c4nc(N)sc4Cl)C3CC2)s1 (stereo not drawn) | 1 (≈ 1.93 µM) | 2 (≈ 3.87 µM) | 68.0 |  | 
6 | NCCSCc1ncccc1SC1=C(C(=O)O)N2C(=O)C(NC(=O)/C(=N\O)c3nc(N)sc3Cl)C2CC1 (stereo not drawn) | 1 (≈ 1.71 µM) | 2 (≈ 3.42 µM) | 89.4 |  | 
7 | Nc1nc(/C(=N/OCCF)C(=O)N[C@@H]2C(=O)N3C(C(=O)O)=C(Sc4nncs4)CCC23)cs1 (stereo partly drawn) [compound (2)] |  |  |  | 2 (≈ 3.89 µM) | > 99.2
